Assays:
Assay in all cases: Cell panel screen (CellTiter-Glo)
Assay type in all cases: cell-based, human
A498 = conditions: Homo sapiens; A498 (listed under Lung), 20 micromolar, 72 hrs; read-out: Percent Inhibition
Outline: (§1)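 Cells grown in 10% FBS medium were seeded, left overnight at 37°C, then exposed to compound at 20 μM final for 72 h. Luminescent ATP read-out; percent growth inhibition taken relative to DMSO-treated controls after subtraction of cell-free background.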

A704 = conditions: Homo sapiens; A704 (Kidney), 20 micromolar, 72 hrs; read-out: Percent Inhibition
Outline: as §1

BT-474 = conditions: Homo sapiens; BT-474 (Breast), 20 micromolar, 72 hrs; read-out: Percent Inhibition
Outline: as §1

Bel-7402 = conditions: Homo sapiens; Bel-7402 (Liver), 20 micromolar, 72 hrs; read-out: Percent Inhibition
Outline: as §1

C3A = conditions: Homo sapiens; C3A (Liver), 20 micromolar, 72 hrs; read-out: Percent Inhibition
Outline: as §1

C8166 = conditions: Homo sapiens; C8166 (Leukemia), 20 micromolar, 72 hrs; read-out: Percent Inhibition
Outline: as §1

CCF-STTG1 = conditions: Homo sapiens; CCF-STTG1 (Brain), 20 micromolar, 72 hrs; read-out: Percent Inhibition
Outline: as §1

CW-2 = conditions: Homo sapiens; CW-2 (Colon), 20 micromolar, 72 hrs; read-out: Percent Inhibition
Outline: as §1

Colo 205 = conditions: Homo sapiens; Colo 205, 20 micromolar, 72 hrs; read-out: Percent Inhibition
Outline: as §1

HCC1395 = conditions: Homo sapiens; HCC1395 (Breast), 20 micromolar, 72 hrs; read-out: Percent Inhibition
Outline: as §1

HCC1599 = conditions: Homo sapiens; HCC1599 (Breast), 20 micromolar, 72 hrs; read-out: Percent Inhibition
Outline: as §1

HCC1937 = conditions: Homo sapiens; HCC1937 (Breast), 20 micromolar, 72 hrs; read-out: Percent Inhibition
Outline: as §1

HEC-1-A = conditions: Homo sapiens; HEC-1-A (Uterus), 20 micromolar, 72 hrs; read-out: Percent Inhibition
Outline: as §1

HGC-27 = conditions: Homo sapiens; HGC-27 (Stomach), 20 micromolar, 72 hrs; read-out: Percent Inhibition
Outline: as §1

HPAF-II = conditions: Homo sapiens; HPAF-II (Pancreas), 20 micromolar, 72 hrs; read-out: Percent Inhibition
Outline: as §1

J82 = conditions: Homo sapiens; J82 (Urinary bladder), 20 micromolar, 72 hrs; read-out: Percent Inhibition
Outline: as §1

MSTO-211-H = conditions: Homo sapiens; MSTO-211-H (Lung), 20 micromolar, 72 hrs; read-out: Percent Inhibition
Outline: as §1

NCI-H1623 = conditions: Homo sapiens; NCI-H1623 (Lung), 20 micromolar, 72 hrs; read-out: Percent Inhibition
Outline: as §1

NCI-H1770 = conditions: Homo sapiens; NCI-H1770 (Lung), 20 micromolar, 72 hrs; read-out: Percent Inhibition
Outline: as §1

NCI-H2405 = conditions: Homo sapiens; NCI-H2405 (Lung), 20 micromolar, 72 hrs; read-out: Percent Inhibition
Outline: as §1

NCI-H28 = conditions: Homo sapiens; NCI-H28 (Lung), 20 micromolar, 72 hrs; read-out: Percent Inhibition
Outline: as §1

NCI-H524 = conditions: Homo sapiens; NCI-H524 (Lung), 20 micromolar, 72 hrs; read-out: Percent Inhibition
Outline: as §1

Panc 03.27 = conditions: Homo sapiens, PANC-03-27; Panc 03.27 (Pancreas), 20 micromolar, 72 hrs; read-out: Percent Inhibition
Outline: as §1

SW13 = conditions: Homo sapiens; SW13 (Adrenal gland), 20 micromolar, 72 hrs; read-out: Percent Inhibition
Outline: as §1

T47D = conditions: Homo sapiens; T47D (Breast), 20 micromolar, 72 hrs; read-out: Percent Inhibition
Outline: as §1

T98G = conditions: Homo sapiens; T98G (Brain), 20 micromolar, 72 hrs; read-out: Percent Inhibition
Outline: as §1

TCCSUP = conditions: Homo sapiens, TCC-SUP; TCCSUP (Urinary bladder), 20 micromolar, 72 hrs; read-out: Percent Inhibition
Outline: as §1

ZR-75-30 = conditions: Homo sapiens; ZR-75-30 (Breast), 20 micromolar, 72 hrs; read-out: Percent Inhibition
Outline: as §1

Structure (SMILES)	inhibition at 20 µM (A498) [%]	inhibition at 20 µM (A704) [%]	inhibition at 20 µM (BT-474) [%]	inhibition at 20 µM (Bel-7402) [%]	inhibition at 20 µM (C3A) [%]	inhibition at 20 µM (C8166) [%]	inhibition at 20 µM (CCF-STTG1) [%]	inhibition at 20 µM (CW-2) [%]	inhibition at 20 µM (Colo 205) [%]	inhibition at 20 µM (HCC1395) [%]	inhibition at 20 µM (HCC1599) [%]	inhibition at 20 µM (HCC1937) [%]	inhibition at 20 µM (HEC-1-A) [%]	inhibition at 20 µM (HGC-27) [%]	inhibition at 20 µM (HPAF-II) [%]	inhibition at 20 µM (J82) [%]	inhibition at 20 µM (MSTO-211-H) [%]	inhibition at 20 µM (NCI-H1623) [%]	inhibition at 20 µM (NCI-H1770) [%]	inhibition at 20 µM (NCI-H2405) [%]	further results
CC(C)=CCC[C@@]1(C)C=Cc2c(O)c3c(c(CCC(C)(C)O)c2O1)O[C@]12C(=C[C@@H]4C[C@H]1C(C)(C)O[C@@]2(C/C=C(/C)C(=O)O)C4=O)C3=O [GB39, 33-hydroxyepigambogic acid]	99	99	100	100	99	100	100	100	100	100	100	100	100	100	100	100	100	100	100	100	inhibition at 20 µM (NCI-H28): 99%; inhibition at 20 µM (NCI-H524): 100%; inhibition at 20 µM (Panc 03.27): 100%; inhibition at 20 µM (SW13): 100%; inhibition at 20 µM (T47D): 100%; inhibition at 20 µM (T98G): 100%; inhibition at 20 µM (TCCSUP): 100%; inhibition at 20 µM (ZR-75-30): 100%
CC(C)=CCC/C(C)=C/Cc1c(O)c(CC=C(C)C)c2c(c1O)C(=O)C1=C[C@@H]3C[C@H]4C(C)(C)O[C@@](C/C=C(\C)C(=O)O)(C3=O)[C@@]14O2 [GB63]	98	99	99	99	99	100	99	99	99	99	99	100	99	99	99	99	99	99	99	99	inhibition at 20 µM (NCI-H28): 99%; inhibition at 20 µM (NCI-H524): 98%; inhibition at 20 µM (Panc 03.27): 99%; inhibition at 20 µM (SW13): 99%; inhibition at 20 µM (T47D): 99%; inhibition at 20 µM (T98G): 99%; inhibition at 20 µM (TCCSUP): 99%; inhibition at 20 µM (ZR-75-30): 99%

From PMC4450297, “Screening Active Compounds from Garcinia Species Native to China Reveals Novel Compounds Targeting the STAT/JAK Signaling Pathway” (BioMed Research International, 2015)
